# Calls of active or inactive are those of the source.
# How the values were obtained:
# [1] = target: T1, Potassium voltage-gated channel subfamily A member 5 (Homo sapiens, UniProt P22460); assay: Inhibition of Kv1.5 (unknown origin)
# [2] = target: T1, Potassium voltage-gated channel subfamily A member 5; assay: Inhibition of Kv1.5 mediated ultra-rapid delayed rectifier current Ikur in human atrial myocytes by voltage-patch clamp electrophysiology method; format: cell-based
# KCNQ1/KCNE1 (IKs) [3] = target: T2, KCNQ1/KCNE1 (IKs) (Homo sapiens, UniProt P15382+P51787); assay: Inhibition of human KCNQ1/KCNE1 expressed in HEK293 cells assessed as reduction in slowly activating delayed rectifier cardiac potassium current at 30 uM by patch clamp electrophysiology method; format: cell-based; details: HEK293 cells expressing human KCNQ1/KCNE1
# T2 sequence (P51787 whole entry): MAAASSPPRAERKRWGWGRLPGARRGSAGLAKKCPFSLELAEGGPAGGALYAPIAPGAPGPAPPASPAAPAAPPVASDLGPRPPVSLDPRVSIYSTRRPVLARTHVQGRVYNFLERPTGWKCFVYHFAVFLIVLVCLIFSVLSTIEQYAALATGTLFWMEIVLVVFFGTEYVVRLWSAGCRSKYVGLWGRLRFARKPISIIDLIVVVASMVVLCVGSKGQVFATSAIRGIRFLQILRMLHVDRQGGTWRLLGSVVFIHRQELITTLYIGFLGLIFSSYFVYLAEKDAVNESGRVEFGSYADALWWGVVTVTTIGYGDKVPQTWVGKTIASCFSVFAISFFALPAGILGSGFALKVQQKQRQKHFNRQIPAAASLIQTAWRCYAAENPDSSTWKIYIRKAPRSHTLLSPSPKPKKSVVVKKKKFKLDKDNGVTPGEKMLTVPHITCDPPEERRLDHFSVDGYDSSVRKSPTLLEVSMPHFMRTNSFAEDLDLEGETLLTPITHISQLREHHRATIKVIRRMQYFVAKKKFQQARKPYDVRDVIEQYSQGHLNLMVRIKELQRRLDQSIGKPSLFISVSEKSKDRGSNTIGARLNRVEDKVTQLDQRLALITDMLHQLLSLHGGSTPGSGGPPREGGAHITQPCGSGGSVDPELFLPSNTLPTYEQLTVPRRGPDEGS
# KCNQ1/KCNE1 (IKs) [4] = target: T2, KCNQ1/KCNE1 (IKs); assay: Inhibition of human KCNQ1/KCNE1 expressed in HEK293 cells assessed as reduction in slowly activating delayed rectifier cardiac potassium current at 10 uM by patch clamp electrophysiology method; format: cell-based; details: HEK293 cells expressing human KCNQ1/KCNE1
# [5] = target: T3, Voltage-gated inwardly rectifying potassium channel KCNH2 (Homo sapiens, UniProt Q12809); assay: Inhibition of human ERG expressed in CHOK1 cells assessed as reduction in rapidly activating delayed rectifier cardiac potassium current by whole-cell voltage-patch clamp assay; format: cell-based
# T3 sequence (Q12809 whole entry): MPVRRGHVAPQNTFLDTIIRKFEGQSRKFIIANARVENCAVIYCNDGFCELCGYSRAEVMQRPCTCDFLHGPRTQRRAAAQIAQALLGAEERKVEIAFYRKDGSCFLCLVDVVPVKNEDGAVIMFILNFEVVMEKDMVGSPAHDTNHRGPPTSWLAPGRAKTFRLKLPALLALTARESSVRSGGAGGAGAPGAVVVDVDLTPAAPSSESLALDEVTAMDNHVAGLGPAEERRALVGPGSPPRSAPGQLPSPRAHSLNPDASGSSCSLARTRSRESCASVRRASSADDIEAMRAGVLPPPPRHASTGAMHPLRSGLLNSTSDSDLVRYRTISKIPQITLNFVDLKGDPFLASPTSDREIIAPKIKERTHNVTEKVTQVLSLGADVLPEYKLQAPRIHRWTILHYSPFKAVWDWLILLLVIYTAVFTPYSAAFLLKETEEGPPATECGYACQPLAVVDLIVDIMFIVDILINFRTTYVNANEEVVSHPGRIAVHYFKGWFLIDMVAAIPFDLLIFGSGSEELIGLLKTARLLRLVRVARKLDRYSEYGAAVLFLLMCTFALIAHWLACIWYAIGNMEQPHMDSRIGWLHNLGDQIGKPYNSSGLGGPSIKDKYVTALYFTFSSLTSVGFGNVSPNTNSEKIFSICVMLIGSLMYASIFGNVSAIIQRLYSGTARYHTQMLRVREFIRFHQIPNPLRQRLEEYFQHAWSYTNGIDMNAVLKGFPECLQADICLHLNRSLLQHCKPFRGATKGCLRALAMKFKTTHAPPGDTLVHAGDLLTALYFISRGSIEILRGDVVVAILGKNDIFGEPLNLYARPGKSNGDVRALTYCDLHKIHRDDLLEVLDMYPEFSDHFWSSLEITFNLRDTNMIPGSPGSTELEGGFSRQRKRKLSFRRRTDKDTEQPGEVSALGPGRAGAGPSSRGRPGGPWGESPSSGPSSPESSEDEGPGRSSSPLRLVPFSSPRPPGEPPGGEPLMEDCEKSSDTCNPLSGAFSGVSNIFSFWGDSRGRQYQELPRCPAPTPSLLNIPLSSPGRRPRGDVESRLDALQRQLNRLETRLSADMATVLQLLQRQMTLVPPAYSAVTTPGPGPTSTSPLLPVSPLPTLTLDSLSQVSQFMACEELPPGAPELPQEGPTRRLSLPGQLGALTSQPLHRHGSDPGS
# [6] = target: T3, Voltage-gated inwardly rectifying potassium channel KCNH2; assay: Displacement of [3H]-MK499 from human ERG IKr channel expressed in HEK293 cell membranes
# [7] = target: T4, A-type voltage-gated potassium channel KCND3 (Homo sapiens, UniProt Q9UK17); assay: Inhibition of Kv4.3 (unknown origin) assessed as reduction in transient outward potassium current by high throughput clamp method
# T4 sequence (Q9UK17 whole entry): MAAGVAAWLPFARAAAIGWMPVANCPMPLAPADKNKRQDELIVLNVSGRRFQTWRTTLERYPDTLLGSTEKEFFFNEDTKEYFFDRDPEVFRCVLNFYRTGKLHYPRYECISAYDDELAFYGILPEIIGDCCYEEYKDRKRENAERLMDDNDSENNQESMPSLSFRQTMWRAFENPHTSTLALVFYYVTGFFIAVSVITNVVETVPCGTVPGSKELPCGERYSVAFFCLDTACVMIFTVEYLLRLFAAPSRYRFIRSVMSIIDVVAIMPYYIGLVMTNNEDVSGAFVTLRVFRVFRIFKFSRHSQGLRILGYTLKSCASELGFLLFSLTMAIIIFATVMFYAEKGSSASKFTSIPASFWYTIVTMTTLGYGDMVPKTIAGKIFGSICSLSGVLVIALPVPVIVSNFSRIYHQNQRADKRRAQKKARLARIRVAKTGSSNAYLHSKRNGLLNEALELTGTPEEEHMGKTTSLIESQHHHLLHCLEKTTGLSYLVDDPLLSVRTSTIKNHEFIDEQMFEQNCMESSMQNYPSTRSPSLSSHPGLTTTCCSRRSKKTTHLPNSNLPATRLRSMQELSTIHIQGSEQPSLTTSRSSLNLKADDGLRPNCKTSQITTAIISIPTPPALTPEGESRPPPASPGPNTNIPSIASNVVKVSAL
# [8] = target: Sodium channel protein type 5 subunit alpha (Homo sapiens, UniProt Q14524); assay: Inhibition of SCN5a (unknown origin) assessed as reduction in sodium current at 10 uM by voltage/ion probe reader method
# Sodium channel protein type 5 subunit alpha, sequence (Q14524 whole entry): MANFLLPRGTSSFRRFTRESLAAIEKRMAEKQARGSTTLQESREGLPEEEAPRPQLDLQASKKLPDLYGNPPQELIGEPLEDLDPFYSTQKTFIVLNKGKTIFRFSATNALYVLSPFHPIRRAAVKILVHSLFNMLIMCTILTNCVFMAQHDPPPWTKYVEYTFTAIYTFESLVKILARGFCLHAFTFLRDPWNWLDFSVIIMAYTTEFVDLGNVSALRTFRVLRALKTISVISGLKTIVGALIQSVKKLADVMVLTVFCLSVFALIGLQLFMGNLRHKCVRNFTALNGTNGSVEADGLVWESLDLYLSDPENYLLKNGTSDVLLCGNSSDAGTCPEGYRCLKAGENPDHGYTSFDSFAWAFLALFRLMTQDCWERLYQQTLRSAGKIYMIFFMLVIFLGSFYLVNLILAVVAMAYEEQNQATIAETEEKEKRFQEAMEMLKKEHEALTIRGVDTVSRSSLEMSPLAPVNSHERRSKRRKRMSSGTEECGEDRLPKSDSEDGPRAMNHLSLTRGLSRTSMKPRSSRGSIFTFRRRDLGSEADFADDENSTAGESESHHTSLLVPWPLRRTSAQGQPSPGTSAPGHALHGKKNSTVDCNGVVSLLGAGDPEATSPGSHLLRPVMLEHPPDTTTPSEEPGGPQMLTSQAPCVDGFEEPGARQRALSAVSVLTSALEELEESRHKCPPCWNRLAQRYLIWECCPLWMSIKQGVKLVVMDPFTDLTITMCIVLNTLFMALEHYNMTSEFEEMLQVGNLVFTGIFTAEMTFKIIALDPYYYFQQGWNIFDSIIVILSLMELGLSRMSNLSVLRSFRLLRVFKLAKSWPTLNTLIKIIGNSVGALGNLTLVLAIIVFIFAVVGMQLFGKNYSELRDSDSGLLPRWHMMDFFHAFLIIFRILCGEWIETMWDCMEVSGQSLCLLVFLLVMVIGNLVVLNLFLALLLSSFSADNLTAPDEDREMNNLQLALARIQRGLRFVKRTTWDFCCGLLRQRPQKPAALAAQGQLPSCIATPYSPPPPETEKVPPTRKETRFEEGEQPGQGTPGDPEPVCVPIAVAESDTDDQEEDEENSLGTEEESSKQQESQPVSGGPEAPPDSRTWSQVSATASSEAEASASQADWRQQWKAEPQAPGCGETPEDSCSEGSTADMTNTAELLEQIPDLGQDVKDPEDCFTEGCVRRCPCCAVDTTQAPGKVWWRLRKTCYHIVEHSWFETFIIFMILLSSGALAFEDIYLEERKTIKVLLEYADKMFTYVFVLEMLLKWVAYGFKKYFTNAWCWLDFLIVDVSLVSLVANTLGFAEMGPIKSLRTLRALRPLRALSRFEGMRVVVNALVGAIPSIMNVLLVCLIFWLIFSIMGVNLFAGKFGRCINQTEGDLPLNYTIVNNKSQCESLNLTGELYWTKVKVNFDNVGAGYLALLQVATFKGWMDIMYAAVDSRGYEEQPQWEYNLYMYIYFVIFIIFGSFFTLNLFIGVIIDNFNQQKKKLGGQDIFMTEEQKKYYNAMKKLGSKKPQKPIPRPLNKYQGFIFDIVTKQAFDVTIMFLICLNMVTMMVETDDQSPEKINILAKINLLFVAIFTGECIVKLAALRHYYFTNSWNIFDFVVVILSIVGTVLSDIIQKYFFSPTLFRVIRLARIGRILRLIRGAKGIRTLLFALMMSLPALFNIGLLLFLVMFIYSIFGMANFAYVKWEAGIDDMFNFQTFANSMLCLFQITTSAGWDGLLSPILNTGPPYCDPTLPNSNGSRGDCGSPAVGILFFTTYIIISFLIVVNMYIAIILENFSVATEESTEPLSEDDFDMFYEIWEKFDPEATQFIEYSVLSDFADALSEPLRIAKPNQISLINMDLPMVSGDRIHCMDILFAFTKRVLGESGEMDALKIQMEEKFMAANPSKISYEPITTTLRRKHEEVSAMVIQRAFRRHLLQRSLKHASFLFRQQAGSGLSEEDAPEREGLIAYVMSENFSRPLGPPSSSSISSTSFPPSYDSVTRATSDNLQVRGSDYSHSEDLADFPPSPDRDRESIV
# Homo sapiens = species: Homo sapiens; assay: Substrate activity at human P-gp assessed as efflux ratio
# [9] = Metabolic stability in human hepatocytes up to 3 hrs by mass spectrometry; format: ADME, cell-based, Hepatocyte
# Canis familiaris [10] = assay: Anti-atrial fibrillation activity in anesthetized Mongrel dog assessed as increase in atrial refractory period at 400 ms of basic cycle length at 0.3 to 100 ug/kg/min, iv administered as 60 mins infusion measured up to 60 mins by electrophysiology method; format: functional, organism-based; details: Canis lupus familiaris
# Canis familiaris [11] = assay: Toxicity in anesthetized Mongrel dog assessed as effect on ventricular refractory period at 0.3 to 100 ug/kg/min, iv administered as 60 mins infusion measured up to 60 mins by electrophysiology method; format: organism-based, Canis lupus familiaris; details: in vivo, 1 h
# Canis familiaris [12] = assay: Toxicity in anesthetized Mongrel dog assessed as effect on heart rate at 0.3 to 100 ug/kg/min, iv administered as 60 mins infusion measured up to 60 mins by electrophysiology method; format: organism-based, Canis lupus familiaris; details: in vivo, 1 h
# Canis familiaris [13] = assay: Toxicity in anesthetized Mongrel dog assessed as effect on mean arterial pressure at 0.3 to 100 ug/kg/min, iv administered as 60 mins infusion measured up to 60 mins by electrophysiology method; format: organism-based, Canis lupus familiaris; details: in vivo, 1 h
# Canis familiaris [14] = assay: Toxicity in anesthetized Mongrel dog assessed as effect on ECG at 0.3 to 100 ug/kg/min, iv administered as 60 mins infusion measured up to 60 mins by electrophysiology method; format: organism-based, Canis lupus familiaris; details: in vivo, 1 h
# Canis familiaris [15] = assay: Toxicity in anesthetized Mongrel dog assessed as effect on PR interval at 0.3 to 100 ug/kg/min, iv administered as 60 mins infusion measured up to 60 mins by electrophysiology method; format: organism-based, Canis lupus familiaris; details: in vivo, 1 h
# Canis familiaris [16] = assay: Toxicity in anesthetized Mongrel dog assessed as effect on QRS interval at 0.3 to 100 ug/kg/min, iv administered as 60 mins infusion measured up to 60 mins by electrophysiology method; format: organism-based, Canis lupus familiaris; details: in vivo, 1 h
# Canis familiaris [17] = assay: Toxicity in anesthetized Mongrel dog assessed as effect on QTc interval at 0.3 to 100 ug/kg/min, iv administered as 60 mins infusion measured up to 60 mins by electrophysiology method; format: organism-based, Canis lupus familiaris; details: in vivo, 1 h
# [18] = Terminal half-life in dog; format: ADME, Canis lupus familiaris; details: in vivo, read-out: beta t1/2 (converted)
# [19] = Terminal half-life in rat; format: ADME; details: in vivo, read-out: beta t1/2 (converted)
# [20] = Terminal half-life in rhesus monkey; format: ADME, Macaca mulatta; details: in vivo, read-out: beta t1/2 (converted)
# [21] = Clearance in dog; format: ADME, Canis lupus familiaris; details: in vivo
# [22] = Clearance in rat; format: ADME; details: in vivo
# [23] = Clearance in rhesus monkey; format: ADME, Macaca mulatta; details: in vivo
# [24] = Volume of distribution at steady state in dog; format: ADME, Canis lupus familiaris; details: in vivo, read-out: Vdss
# [25] = Volume of distribution at steady state in rat; format: ADME; details: in vivo, read-out: Vdss
# [26] = Volume of distribution at steady state in rhesus monkey; format: ADME, Macaca mulatta; details: in vivo, read-out: Vdss
# [27] = Protein binding in dog plasma; format: ADME, cell-free, Canis lupus familiaris; details: read-out: PPB (converted)
# [28] = Protein binding in rat plasma; format: ADME, cell-free; details: read-out: PPB (converted)
# [29] = Protein binding in rhesus monkey plasma; format: ADME, cell-free, Macaca mulatta; details: read-out: PPB (converted)
# [30] = Oral bioavailability in dog; format: ADME, organism-based, Canis lupus familiaris; details: in vivo
# [31] = Oral bioavailability in rat; format: ADME, organism-based; details: in vivo
# [32] = Oral bioavailability in rhesus monkey; format: ADME, organism-based, Macaca mulatta; details: in vivo
# Canis familiaris [33] = assay: Anti-atrial fibrillation activity in iv dosed anesthetized Mongrel dog assessed as increase in atrial refractory period at 400 ms of basic cycle length administered as 60 mins infusion measured up to 60 mins by electrophysiology method; format: functional, Canis lupus familiaris
# Canis familiaris [34] = assay: Effect on ventricular refractory period in iv dosed anesthetized Mongrel dog assessed as threshold change in ventricular refractory period at 400 ms of basic cycle length administered as 60 mins infusion measured up to 60 mins by electrophysiology method; format: ADME, organism-based, Canis lupus familiaris; details: in vivo, 1 h
# [35] = Selectivity index, ratio of IC50 for human KCNQ1/KCNE1 IKs channel expressed in HEK293 cells to IC50 for Kv1.5 IKur channel in human atrial myocytes
# Canis familiaris [36] = assay: Selectivity index, ratio of compound effect for anti-atrial fibrillation activity in iv dosed anesthetized Mongrel dog assessed as increase in atrial refractory period to compound effect on ventricular refractory period in iv dosed anesthetized Mongrel dog; set-up: species or system Canis lupus familiaris
# T1 sequence (P22460 whole entry): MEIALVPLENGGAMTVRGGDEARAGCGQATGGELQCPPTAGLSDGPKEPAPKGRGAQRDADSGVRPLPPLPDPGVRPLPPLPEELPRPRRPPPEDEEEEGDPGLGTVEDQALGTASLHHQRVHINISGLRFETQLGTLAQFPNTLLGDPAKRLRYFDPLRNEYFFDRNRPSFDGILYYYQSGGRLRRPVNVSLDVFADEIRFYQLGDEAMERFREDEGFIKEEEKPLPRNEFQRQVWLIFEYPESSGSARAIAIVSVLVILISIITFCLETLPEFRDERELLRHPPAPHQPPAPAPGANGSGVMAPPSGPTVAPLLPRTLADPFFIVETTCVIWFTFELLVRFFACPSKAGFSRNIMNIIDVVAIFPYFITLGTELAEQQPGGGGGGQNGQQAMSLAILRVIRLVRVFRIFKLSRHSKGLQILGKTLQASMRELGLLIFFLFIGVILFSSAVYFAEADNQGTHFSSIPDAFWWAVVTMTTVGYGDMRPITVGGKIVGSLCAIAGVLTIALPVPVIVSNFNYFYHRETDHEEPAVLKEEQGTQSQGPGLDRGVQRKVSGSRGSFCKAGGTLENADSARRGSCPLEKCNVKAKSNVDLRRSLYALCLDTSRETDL
smiles,measurement,setting,value
O[C@@H](c1cccnc1-c1cc(Cl)cc(Cl)c1)C(c1cccnc1)c1cccnc1,IC50,[1],0.029 to 2.92 µM
same,IC50,[2],0.011 µM
same,inhibition at 30 µM,KCNQ1/KCNE1 (IKs) [3],7%
same,inhibition at 10 µM,KCNQ1/KCNE1 (IKs) [4],5.7%
same,IC50,[5],128 µM
same,IC50,[6],> 30 µM
same,IC50,[7],8.3 µM
same,inhibition (INH),[8],Not Active
same,Ratio,Homo sapiens,30
same,Stability,[9],Unstable
same,Activity,Canis familiaris [10],Active
same,Activity,Canis familiaris [11],Non-Toxic
same,Activity,Canis familiaris [12],Non-Toxic
same,Activity,Canis familiaris [13],Non-Toxic
same,Activity,Canis familiaris [14],Non-Toxic
same,Activity,Canis familiaris [15],Non-Toxic
same,Activity,Canis familiaris [16],Non-Toxic
same,Activity,Canis familiaris [17],Non-Toxic
same,half-life,[18],2.6 h
same,half-life,[19],1.6 h
same,half-life,[20],1 h
same,clearance,[21],3.7 mL/min/kg
same,clearance,[22],16.7 mL/min/kg
same,clearance,[23],14.3 mL/min/kg
same,Vd,[24],0.81 L/kg
same,Vd,[25],1.59 L/kg
same,Vd,[26],0.99 L/kg
same,fraction unbound,[27],0.16
same,fraction unbound,[28],0.21
same,fraction unbound,[29],0.08
same,bioavailability,[30],93%
same,bioavailability,[31],34%
same,bioavailability,[32],21%
same,EC10,Canis familiaris [33],0.014 µM
same,Activity,Canis familiaris [34],> 25 µM
same,Ratio IC50,[35],>3000
same,Selectivity Index,Canis familiaris [36],>1800

# — ChEMBL document CHEMBL4002640, “Discovery of MK-1832, a Kv1.5 inhibitor with improved selectivity and pharmacokinetics” (Bioorg Med Chem Lett, 2017)
